Source: patent publication US11077098B2, “Opioid receptor ligands and methods of using and making same” (TREVENA, INC., priority 2011, dated 2021)

System: mice
Test: hot plate assay for antinociception in mice
Format: in vivo, mouse
Settings: for ED50 / analgesic effect in the mouse hot plate assay compared to morphine: SC; for ED50: tested thirty minutes after drug administration
Procedure: The hot plate assay is adapted from the procedure originally described by O'Callaghan and Holtzman (JPET, 192, 497, 1975) and is commonly used to determine the potential analgesic efficacy of opioid agonists. The antinociceptive effect of the composition(s) described herein in the hot plate is expressed in % MPE (Maximum Possible Effect).
Rats (175-250 g) or mice (20-30 g) acclimated to the vivarium for at least 48 hr prior to behavioral testing. Test drugs were administered by the subcutaneous (SC) route. Animals were placed on the hot plate, which the temperature was set at 50-56° C., depending on the in vitro potency of the compound. A cutoff time of 30-60 seconds was used depending on the temperature of the hot plate so that the paws of the animal displaying analgesia, was not damaged by the heat stimulus. The cutoff time was considered a 100% response to the thermal insult. Prior to drug treatment, each animal was tested to determine the baseline response. Thirty minutes after drug administration, animals were re-tested. Dose response experiments were performed to evaluate the potency of the test compound when various doses were administered at the point when maximal analgesia is observed.
The % MPE was calculated according to the following formula: % MPE=[(Post drug latency−baseline latency)/(60 or 30−baseline latency)]×100
ED50 values were calculated from the mean % MPE values for each group using log dose-response curves by least-squares regression analysis.

Compound | % MPE (mouse hot plate, at 10 mg/kg SC) | ED50 (mouse hot plate) | efficacy in the mouse hot plate (at a dose of 10 mg/kg SC) | analgesic effect in the mouse hot plate assay compared to morphine
Fc1ccc([C@]2(CCNCc3ccccc3)CCOC3(CCCC3)C2)cc1 [Compound 81, benzyl({2-[(9R)-9-(4-fluorophenyl)-6-oxaspiro[4.5]decan-9-yl]ethyl})amine] | 100% at 10 |  |  | 
Cc1ccc(CNCC[C@@]2(c3ccc(F)cc3)CCOC3(CCCC3)C2)s1 [Compound 145] |  | 5.9 mg/kg |  | 
CN1CC[C@]23c4c5ccc(O)c4O[C@H]2[C@@H](O)C=C[C@H]3[C@H]1C5 [Morphine, reference compound] |  | 3.8 mg/kg | full efficacy | 
c1ccc(CNCC[C@@]2(c3ccccn3)CCOC3(CCCC3)C2)cc1 [Compound 28] |  | 1.2 mg/kg |  | more robust analgesic effect
Cc1cccc(CNCC[C@@]2(c3ccc(F)cc3)CCOC3(CCCC3)C2)c1 [Compound 122, {2-[(9R)-9-(4-fluorophenyl)-6-oxaspiro[4.5]decan-9-yl]ethyl}[(3-methylphenyl)methyl]amine] |  | 1.1 mg/kg |  | more robust analgesic effect
